“And” between values parts separate entries of the source, which are not always exact repeats. Identical values can stand only once. Like-named read-outs stand apart in the source and are kept apart here.
Assays:
HGF = system: HGF
Description: (§1) Description of ALS Phase 2A trial and participants: Participants received a total of infusions administered intravenously over 6 cycles during a 25-week double-blind treatment period. There were 4 weeks between the start of each cycle. Cycle 1 consisted of 5 consecutive daily infusions. Cycles 2, 3, 4, 5, and 6 each consisted of 3 consecutive daily infusions. Plasma specimens for biomarker analysis were obtained at the beginning and end of study.
(§2) Source of patient specimens: The plasma specimens had been stored at −80° C. since the trial ended and were all evaluated for biomarker levels.

LBP = system: LBP
Description: as §1, §2

EGF = system: EGF
Description: as §1, §2

IL-18 = system: IL-18
Description: as §1, §2

IL-10 = system: IL-10
Description: as §1, §2

Neopterin = system: Neopterin
Description: as §1, §2

LPS = system: LPS
Description: as §1, §2

sCD163 = system: sCD163
Description: as §1, §2

IL-6 = conditions: age 40-65, CRP>1.13 mg/L
Method: as §2

TNF-a = conditions: age 40-65, CRP>1.13 mg/L
Method: as §2

IL-8 = conditions: age 40-65, CRP>1.13 mg/L
Method: as §2

NfL = conditions: 6 months; p=0.09
CD16 = conditions: phase 1 dose ascending study in ALS patients; cited from earlier work
ALS patients [1] = conditions: for decline in VC over 6 months vs placebo (words): CRP>1.13 mg/L
Method: (§3) Participants received a total of 20 infusions administered intravenously monthly over 6 cycles during a 6-month double-blind treatment period. […] The start of each cycle was separated by four weeks. Cycle 1 consisted of 30 min infusions over 5 consecutive days. Cycles 2, 3, 4, 5, and 6 each consisted of 3 consecutive daily infusions. ALSFRS-R and vital capacity measurements were performed monthly. The average rate of ALS disease progression (Average DP Rate) at baseline was defined as ALSFRS-R score change per month [(48−ALSFRS-R score at baseline)/months since ALS symptom onset from baseline]]. […] Plasma specimens for biomarker analysis were obtained at the beginning and end of the study (month 6, one month after last dose). All patients had to have completed the study to provide end of study plasma. The units expressed in this Example are hs-CRP units, abbreviated as CRP.
The clinical outcome data evaluated for the current study were the forced vital capacity measurements performed on all patients at baseline and every month until the end of study. Using the patient's age and height with the actual respiratory volume measured, the % predicted vital capacity (VC) was calculated as described.

LPS:EGF = conditions: ratio increased over time in placebo
TGFB1 = conditions: age≤65, baseline CRP>1.13 mg/L; p=0.02 for month 6
Method: as §3

ALS patients [2] = system: ALS patients
ALS patients [3] = conditions: plasma CRP greater than 1.13 mg/L; rates of ALSFRS-R and vital capacity decline; cited from earlier work
[4] = CRP>1.13 mg/L, aged 40-65, Wilcoxon p 0.02
[5] = NP001 2 mg/kg, N 14, age 40-65, CRP>1.13 mg/L, six months
[6] = CRP>1.13 mg/L, aged 40-65, Wilcoxon p 0.04
[7] = CRP>1.13 mg/L, listed as sodium chlorite
[8] = NP001 2 mg/kg, N 59, age≤65, CRP>1.13 mg/L
[9] = NP001 2 mg/kg, N 64, age≤65, CRP>1.13 mg/L
[10] = NP001 2 mg/kg, N 68, age≤65, CRP>1.13 mg/L
[11] = NP001 2 mg/kg, N 69, age≤65, CRP>1.13 mg/L
[12] = NP001 2 mg/kg, N 72, age≤65, CRP>1.13 mg/L
[13] = NP001 2 mg/kg, N 74, age≤65, CRP>1.13 mg/L

sodium chlorite [NP001]
plasma HGF change relative to placebo over 6 months (HGF; CRP>1.13 mg/L): decreased
HGF: % difference between NP001-treated and placebo at 6 months (% median change from baseline) (HGF; [4]): −31.4%
% HGF change from baseline, Mean (HGF; [5]): −7.6%
% HGF change from baseline, Median (HGF; [5]): −14.3%
plasma LBP change relative to placebo over 6 months (LBP; CRP>1.13 mg/L): decreased
LBP: % difference between NP001-treated and placebo at 6 months (% median change from baseline) (LBP; CRP>1.13 mg/L, aged 40-65, Wilcoxon p 0.006): −25.9%
% LBP change from baseline, Mean (LBP; [5]): −1.6%
% LBP change from baseline, Median (LBP; [5]): −5.4%
plasma EGF change relative to placebo over 6 months (EGF; CRP>1.13 mg/L): increased
EGF: % difference between NP001-treated and placebo at 6 months (% median change from baseline) (EGF; [6]): 32.4%
% EGF change from baseline, Mean (EGF; [5]): 64.3%
% EGF change from baseline, Median (EGF; [5]): 6.5%
IL-18: % difference between NP001-treated and placebo at 6 months (% median change from baseline) (IL-18; [4]): −58.3%
plasma IL-18 change relative to placebo over 6 months (words) (IL-18; [7]): decreased
% IL-18 change from baseline, Mean (IL-18; [5]): 25.8%
% IL-18 change from baseline, Median (IL-18; [5]): −2.1%
plasma IL-10 change relative to placebo over 6 months (IL-10; CRP>1.13 mg/L): increased
IL-10: % difference between NP001-treated and placebo at 6 months (% median change from baseline) (IL-10; [4]): 18.6%
% IL-10 change from baseline, Mean (IL-10; [5]): 38.8%
% IL-10 change from baseline, Median (IL-10; [5]): 0.0%
plasma neopterin change relative to placebo over 6 months (Neopterin; CRP>1.13 mg/L): increased
Neopterin: % difference between NP001-treated and placebo at 6 months (% median change from baseline) (Neopterin; [6]): 18.1%
% Neopterin change from baseline, Mean (Neopterin; [5]): 13.9%
% Neopterin change from baseline, Median (Neopterin; [5]): 10.8%
LPS: % difference between NP001-treated and placebo at 6 months (% median change from baseline) (LPS; [6]): −51.8%
plasma LPS change relative to placebo over 6 months (words) (LPS; [7]): decreased
% LPS change from baseline, Mean (LPS; [5]): −22.0%
% LPS change from baseline, Median (LPS; [5]): −30.4%
plasma sCD163 change relative to placebo over 6 months (sCD163; CRP>1.13 mg/L): decreased
sCD163: % difference between NP001-treated and placebo at 6 months (% median change from baseline) (sCD163; [4]): −19.6%
% CD163 change from baseline, Mean (sCD163; [5]): −3.5%
% CD163 change from baseline, Median (sCD163; [5]): −5.9%
plasma IL-6 values over the six-month study (IL-6): within the normal range and did not change
plasma TNF-a values over the six-month study (TNF-a): within the normal range and did not change
plasma IL-8 values over the six-month study (IL-8): within the normal range and did not change
plasma NfL in treated non-progressors compared to progressors (NfL): trend towards a loss of plasma NfL
monocyte activation marker CD16 (CD16): dose dependent down regulation
average VC lost per month (ALS patients [1]; 2 mg/kg, age≤65, CRP>1.13 mg/L, placebos 2.1%): 0.75 % VC per month
decline in VC over 6 months vs placebo (words) (ALS patients [1]): improved
decline in VC over 6 months vs placebo (words) (ALS patients [1]; listed as sodium chlorite): significantly slowed
% VC change from baseline, Month 6, Mean (ALS patients [1]; [8]): Mean: −9.1%
% VC change from baseline, Month 6, Median (ALS patients [1]; [8]): Median: −5.4%
% VC change from baseline, Month 5, Mean (ALS patients [1]; [9]): Mean: −9.4%
% VC change from baseline, Month 5, Median (ALS patients [1]; [9]): Median: −6.4%
% VC change from baseline, Month 4, Mean (ALS patients [1]; [10]): Mean: −8.1%
% VC change from baseline, Month 4, Median (ALS patients [1]; [10]): Median: −5.4%
% VC change from baseline, Month 3, Mean (ALS patients [1]; [11]): Mean: −6.5%
% VC change from baseline, Month 3, Median (ALS patients [1]; [11]): Median: −3.8%
% VC change from baseline, Month 2, Mean (ALS patients [1]; [12]): Mean: −4.6%
% VC change from baseline, Month 2, Median (ALS patients [1]; [12]): Median: −2.6%
% VC change from baseline, Month 1, Mean (ALS patients [1]; [13]): Mean: −2.5%
% VC change from baseline, Month 1, Median (ALS patients [1]; [13]): Median: −0.9%
mean % VC change from baseline by the end of study, low CRP group (ALS patients [1]; age≤65, CRP<1.13 mg/L, Placebo −13.5%, p=0.83): −16.4%
slower rate of VC loss compared to placebo (ALS patients [1]; age≤65, CRP>1.13 mg/L, end of six-month study, p=0.05): > 64% and 64%
ratio of LPS to EGF, trend over time (LPS:EGF): decreased over time
plasma TGFB1 levels over the 6-month trial vs placebo (TGFB1): significantly increased
ALSFRS-R score lost over six months (ALS patients [2]; 2 mg/kg, CRP>1.13 mg/L, age 40-65, placebos lost 4.6 units (p=0.03)): 1.2 units
proportion of non-progressors (no decrease in ALSFRS-R score at 6 months) (ALS patients [2]; 2 mg/kg, age 40-65, CRP>1.13 mg/L, placebo 2 out of 17): 6 out of 15
decline in ALSFRS-R over 6 months vs placebo (words) (ALS patients [2]; CRP>1.13 mg/L): highly significant difference
non-progression rate (no decrease in ALSFRS-R score at 6 months) (ALS patients [2]; CRP>1.13 mg/L, age 40-65, placebos less than 10% (p=0.08)): 35%
decline in ALSFRS-R over 6 months vs placebo (words) (ALS patients [2]; [7]): significantly slowed
relationship between drug dose and change in ALSFRS-R score over six months (ALS patients [2]; plasma CRP above the median value (1.13 mg/L)): dose responsive relationship
clinical activity in all ALS patients of the phase 2A study (ALS patients [2]; symptom onset within the past three years, no CRP or age cutoff): did not show significant clinical activity
disease progression vs placebo, post hoc evaluation of phase 2 studies (ALS patients [3]): slowed disease progression

Reference: patent publication US12233086B2, “Biomarkers for neurogenerative disease” (Neuvivo, Inc., priority 2022, dated 2025)
